# Experimental data reported in patent US20260250290A1 (BRISTOL-MYERS SQUIBB COMPANY, priority 2023, published 2026).
# pIC50: −log10 of the molar value. Structures can show the parent of a compound that is named as a salt.
# Biological target: T1, full length SGK1 (Homo sapiens, UniProt O00141)
# T1 construct: 125 μM full length SGK1 (Life Technologies Part #PR7358A); purchased Life Technologies PR7358A
# T1 sequence (O00141 1-431): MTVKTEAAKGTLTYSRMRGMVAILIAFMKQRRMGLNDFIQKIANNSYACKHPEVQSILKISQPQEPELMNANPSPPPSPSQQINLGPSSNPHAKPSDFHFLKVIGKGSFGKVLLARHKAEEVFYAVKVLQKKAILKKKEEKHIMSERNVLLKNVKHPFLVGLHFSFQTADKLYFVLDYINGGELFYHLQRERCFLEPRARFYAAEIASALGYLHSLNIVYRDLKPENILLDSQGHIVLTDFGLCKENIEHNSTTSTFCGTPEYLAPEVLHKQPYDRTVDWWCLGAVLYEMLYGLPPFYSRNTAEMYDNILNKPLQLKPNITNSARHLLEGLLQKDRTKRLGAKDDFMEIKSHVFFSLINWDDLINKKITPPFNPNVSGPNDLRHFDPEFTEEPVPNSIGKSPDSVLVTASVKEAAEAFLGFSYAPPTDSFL
# Experiment: SGK1 inhibition Assay A (Caliper LabChip electrophoretic separation of fluorescent peptide substrate and phosphorylated product)
# Type: biochemical
# Settings: Assay A; 20 μM ATP, 40 min incubation; read-out: SGK1 IC50
row,pIC50,Compound
1,6.04,"CN(C)CCOc1cc(Cl)sc1C(=O)N[C@@H]1CCCN(c2cc(-c3cnn(C4CCOC4)c3)n3ncnc(N)c23)C1 (stereo partly drawn) [Example 275, N-((3R)-1-(4-amino-7-(1-(tetrahydrofuran-3-yl)-1H-pyrazol-4-yl)pyrrolo[2,1-f][1,2,4]triazin-5-yl)piperidin-3-yl)-5-chloro-3-(2-(dimethylamino)ethoxy)thiophene-2-carboxamide]"
2,7.31,"CC(=O)NCCOc1cc(C(F)F)sc1C(=O)N[C@@H]1CCCN(c2cc(-c3cncnc3)n3ncnc(N)c23)C1 [Example 424, (R)-3-(2-acetamidocthoxy)-N-(1-(4-amino-7-(pyrimidin-5-yl)pyrrolo[2,1-f][1,2,4]triazin-5-yl)piperidin-3-yl)-5-(difluoromethyl)thiophene-2-carboxamide]"
3,7.49,"CC(=O)N1CC=C(c2cc(N3CCC[C@@H](NC(=O)c4cccc(N5CCNCC5)n4)C3)c3c(N)ncnn23)C1 [Example 813, (R)—N-(1-(7-(1-acetyl-2,5-dihydro-1H-pyrrol-3-yl)-4-aminopyrrolo[2,1-f][1,2,4]triazin-5-yl)piperidin-3-yl)-6-(piperazin-1-yl)picolinamide]"
4,7.60,"NC(=O)c1ccc(-c2cc(N3CCC[C@@H](NC(=O)c4sc5ccccc5c4OC4CNC4)C3)c3c(N)ncnn23)cn1 [Example 675, (R)-5-(4-amino-5-(3-(3-(azetidin-3-yloxy)benzo[b]thiophene-2-carboxamido)piperidin-1-yl)pyrrolo[2,1-f][1,2,4]triazin-7-yl)picolinamide]"
5,8.10,"N#Cc1cc(-c2cc(N3CCC[C@@H](NC(=O)c4sc(C(F)F)cc4OC4COC4)C3)c3c(N)ncnn23)ccn1 [Example 437, (R)-N-(1-(4-amino-7-(2-cyanopyridin-4-yl)pyrrolo[2,1-f][1,2,4]triazin-5-yl)piperidin-3-yl)-5-(difluoromethyl)-3-(oxetan-3-yloxy)thiophene-2-carboxamide]"
6,8.22,"N#Cc1ccc(-c2cc(N3CCC[C@@H](NC(=O)c4ccc(Cl)s4)C3)c3c(N)ncnn23)s1 [Example 212, (R)-N-(1-(4-amino-7-(5-cyanothiophen-2-yl)pyrrolo[2,1-f][1,2,4]triazin-5-yl)piperidin-3-yl)-5-chlorothiophene-2-carboxamide, TFA]"
7,7.32,"CS(=O)(=O)c1ccc(-c2cc(N3CCC[C@@H](NC(=O)c4ccnc(N)c4)C3)c3c(N)ncnn23)cc1 [Example 39, (R)-2-amino-N-(1-(4-amino-7-(4-(methylsulfonyl)phenyl)pyrrolo [2,1-f][1,2,4]triazin-5-yl)piperidin-3-yl)isonicotinamide]"
8,7.82,"NCCOc1cc(C(F)F)sc1C(=O)N[C@@H]1CCCN(c2cc(-c3cncnc3)n3ncnc(N)c23)C1 [Example 325, (R)-N-(1-(4-amino-7-(pyrimidin-5-yl)pyrrolo[2,1-f][1,2,4]triazin-5-yl)piperidin-3-yl)-3-(2-aminoethoxy)-5-(difluoromethyl)thiophene-2-carboxamide]"
9,8.52,"N#Cc1ccc(-c2cc(N3CCC[C@@H](NC(=O)c4sc5ccccc5c4OC4CCNCC4)C3)c3c(N)ncnn23)cn1 [Example 656, (R)—N-(1-(4-amino-7-(6-cyanopyridin-3-yl)pyrrolo[2,1-f][1,2,4]triazin-5-yl)piperidin-3-yl)-3-(piperidin-4-yloxy)benzo[b]thiophene-2-carboxamide]"
10,6.66,"CN1CCC(c2cc(C(F)F)sc2C(=O)N[C@@H]2CCCN(c3cc(-c4ccc(C(N)=O)nc4)n4ncnc(N)c34)C2)C1 (stereo partly drawn) [Example 402, 5-(4-amino-5-((3R)-3-(5-(difluoromethyl)-3-(1-methylpyrrolidin-3-yl)thiophene-2-carboxamido)piperidin-1-yl)pyrrolo[2,1-f][1,2,4]triazin-7-yl)picolinamide]"
11,6.12,"CC1(NC(=O)c2ccc(Cl)s2)CCCN(c2cc(-c3ccc(S(C)(=O)=O)cc3)n3ncnc(N)c23)C1 (stereo not shown) [Example 145, N-(1-(4-amino-7-(4-(methylsulfonyl)phenyl)pyrrolo[2,1-f][1,2,4]triazin-5-yl)-3-methylpiperidin-3-yl)-5-chlorothiophene-2-carboxamide, TFA]"
12,7.36,"CS(=O)(=O)c1ccc(-c2cc(N3CCC[C@@H](NC(=O)c4ccnc(C#N)c4)C3)c3c(N)ncnn23)cc1 [Example 47, (R)-N-(1-(4-amino-7-(4-(methylsulfonyl)phenyl)pyrrolo[2,1-f][1,2,4]triazin-5-yl)piperidin-3-yl)-2-cyanoisonicotinamide, TFA]"
13,8.40,"COc1cc(-c2cc(N3CCC[C@@H](NC(=O)c4ccc(Cl)s4)C3)c3c(N)ncnn23)ccc1C(N)=O [Example 207, (R)-N-(1-(4-amino-7-(4-carbamoyl-3-methoxyphenyl)pyrrolo [2,1-f][1,2,4]triazin-5-yl)piperidin-3-yl)-5-chlorothiophene-2-carboxamide]"
14,7.68,"Cc1cc(C(=O)N[C@@H]2CCCN(c3cc(-c4ccc(S(C)(=O)=O)cc4)n4ncnc(N)c34)C2)cc(C)n1 [Example 35, (R)-N-(1-(4-amino-7-(4-(methylsulfonyl)phenyl)pyrrolo[2,1-f][1,2,4]triazin-5-yl)piperidin-3-yl)-2,6-dimethylisonicotinamide]"
15,8.00,"CNCCOc1cc(Cl)sc1C(=O)N[C@@H]1CCCN(c2cc(C3=CCN(C(C)=O)C3)n3ncnc(N)c23)C1 [Example 332D, (R)—N-(1-(7-(1-acetyl-2,5-dihydro-1H-pyrrol-3-yl)-4-aminopyrrolo[2,1-f][1,2,4]triazin-5-yl)piperidin-3-yl)-5-chloro-3-(2-(methylamino)ethoxy)thiophene-2-carboxamide]"
16,8.15,"CC(=O)N1CC=C(c2cc(N3CCC[C@@H](NC(=O)c4sc(C5CC5)cc4OC4CCN(C)CC4)C3)c3c(N)ncnn23)C1 [Example 376, (R)—N-(1-(7-(1-acetyl-2,5-dihydro-1H-pyrrol-3-yl)-4-aminopyrrolo[2,1-f][1,2,4]triazin-5-yl)piperidin-3-yl)-5-cyclopropyl-3-((1-methylpiperidin-4-yl)oxy)thiophene-2-carboxamide]"
17,8.22,"COC(=O)N1CC=C(c2cc(N3CCC[C@@H](NC(=O)c4sc(Cl)cc4OC4CCN(C5CC5)CC4)C3)c3c(N)ncnn23)C1 [Example 616, methyl (R)-3-(4-amino-5-(3-(5-chloro-3-((1-cyclopropylpiperidin-4-yl)oxy)thiophene-2-carboxamido)piperidin-1-yl)pyrrolo[2,1-f][1,2,4]triazin-7-yl)-2,5-dihydro-1H-pyrrole-1-carboxylate]"
18,8.52,"CC(=O)NCCOc1cc(Cl)sc1C(=O)N[C@@H]1CCCN(c2cc(C3=CCN(C(C)=O)C3)n3ncnc(N)c23)C1 [Example 328, (R)-3-(2-acetamidoethoxy)-N-(1-(7-(1-acetyl-2,5-dihydro-1H-pyrrol-3-yl)-4-aminopyrrolo[2,1-f][1,2,4]triazin-5-yl)piperidin-3-yl)-5-chlorothiophene-2-carboxamide]"
19,7.68,"CC(=O)N1CC=C(c2cc(N3CCC[C@@H](NC(=O)c4sc(Cl)cc4OCC4(N)CC4)C3)c3c(N)ncnn23)C1 [Example 331, (R)—N-(1-(7-(1-acetyl-2,5-dihydro-1H-pyrrol-3-yl)-4-aminopyrrolo[2,1-f][1,2,4]triazin-5-yl)piperidin-3-yl)-3-((1-aminocyclopropyl)methoxy)-5-chlorothiophene-2-carboxamide]"
20,7.57,"CC(C)c1cc(C(=O)N[C@@H]2CCCN(c3cc(-c4ccnc(C(F)F)c4)n4ncnc(N)c34)C2)[nH]n1 [Example 486, (R)-N-(1-(4-amino-7-(2-(difluoromethyl)pyridin-4-yl)pyrrolo[2,1-f][1,2,4]triazin-5-yl)piperidin-3-yl)-3-isopropyl-1H-pyrazole-5-carboxamide]"
21,7.72,Nc1ncnn2c(-c3ccc(Cl)nc3)cc(N3CCC[C@@H](NC(=O)c4ccc(Cl)s4)C3)c12 [Example 236]
22,7.10,"CC(=O)N1CC=C(c2cc(N3CCC[C@@H](NC(=O)c4ccnc(N5CC6(C5)CN(C(C)C)C6)n4)C3)c3c(N)ncnn23)C1 [Example 752, (R)-N-(1-(7-(1-acetyl-2,5-dihydro-1H-pyrrol-3-yl)-4-aminopyrrolo[2,1-f][1,2,4]triazin-5-yl)piperidin-3-yl)-2-(6-isopropyl-2,6-diazaspiro[3.3]heptan-2-yl)pyrimidine-4-carboxamide]"
23,9.00,"CC(=O)N1CC=C(c2cc(N3CCC[C@@H](NC(=O)c4ccc(-c5ccccc5)o4)C3)c3c(N)ncnn23)C1 [Example 454, (R)-N-(1-(7-(1-acetyl-2,5-dihydro-1H-pyrrol-3-yl)-4-aminopyrrolo[2,1-f][1,2,4]triazin-5-yl)pipridin-3-yl)-5-phenylfuran-2-carboxamide]"
24,8.05,"Nc1ncnn2c(-c3ccnc(C(F)(F)F)c3)cc(N3CCC[C@@H](NC(=O)c4sc(Cl)cc4OCCN4CCOCC4)C3)c12 [Example 267, (R)—N-(1-(4-amino-7-(2-(trifluoromethyl)pyridin-4-yl)pyrrolo[2,1-f][1,2,4]triazin-5-yl)piperidin-3-yl)-5-chloro-3-(2-morpholinoethoxy)thiophene-2-carboxamide]"

row,Compound,pIC50
1,"COC(=O)N1CCC(c2cc(N3CCC[C@@H](NC(=O)c4sc5ccccc5c4OC4CN(C(=O)OC(C)(C)C)C4)C3)c3c(N)ncnn23)C1 (stereo partly drawn) [Example 671, methyl 3-(4-amino-5-((R)-3-(3-((1-(tert-butoxycarbonyl)azetidin-3-yl)oxy)benzo[b]thiophene-2-carboxamido)piperidin-1-yl)pyrrolo[2,1-f][1,2,4]triazin-7-yl)pyrrolidine-1-carboxylate]",7.17
